# Laboratory results as given in patent publication US10703748B2, “Diazanaphthalen-3-yl carboxamides and preparation and use thereof” (Samumed, LLC, priority 2017, dated 2020).
# Read-outs that look alike come from different tables or passages of the source.
# Tests used:
# DYRK1A kinase = DYRK1A kinase (Homo sapiens, UniProt Q13627); test: DYRK1A kinase activity (Ser/Thr 18 peptide Z-lyte FRET assay); type: biochemical; conditions: recombinant DYRK1A, 30 μM ATP, one hour at room temperature;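 further: kinase activity read as coumarin/fluorescein emission ratio after development step, with unphosphorylated and phosphorylated peptide forms setting 0% and 100% controls, values from dose-response curves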
# Protocol: Representative compounds were screened using the assay procedure for DYRK1A kinase activity as described below.
# Each compound was dissolved in DMSO as a 10 mM stock and used to prepare compound source plates.
# This is a non-radioactive assay using fluorescence resonance energy transfer (FRET) between coumarin and fluorescein to detect kinase activity which is represented as a ratio of coumarin emission/fluorescein emission.
# The mixture was allowed to incubate with the representative compounds for one hour at room temperature. All reactions were performed in duplicate. Unphosphorylated (“0% Control”) and phosphorylated (“100% control”) forms of Ser/Thr 18 served as control reactions. Additionally, an 11-point dose-response curve of Staurosporine (1 uM top) was run to serve as a positive compound control.
# After incubation, Development Reagent A was diluted in Development Buffer then added to the reaction and allowed to further incubate for one hour at room temperature.
# Dose-response curves were generated and inhibitory concentration (IC50) values were calculated using non-linear regression curve fit in the Dotmatics' Studies Software (Bishops Stortford, UK).
# GSK3β kinase = GSK3β kinase (Homo sapiens, UniProt P49841); test: GSK3β kinase activity (Ser/Thr 09 peptide Z-lyte FRET assay); type: biochemical; conditions: recombinant kinase, 46 μM ATP, one hour at room temperature; read-out: EC50
# Chain of GSK3β kinase (P49841 whole entry): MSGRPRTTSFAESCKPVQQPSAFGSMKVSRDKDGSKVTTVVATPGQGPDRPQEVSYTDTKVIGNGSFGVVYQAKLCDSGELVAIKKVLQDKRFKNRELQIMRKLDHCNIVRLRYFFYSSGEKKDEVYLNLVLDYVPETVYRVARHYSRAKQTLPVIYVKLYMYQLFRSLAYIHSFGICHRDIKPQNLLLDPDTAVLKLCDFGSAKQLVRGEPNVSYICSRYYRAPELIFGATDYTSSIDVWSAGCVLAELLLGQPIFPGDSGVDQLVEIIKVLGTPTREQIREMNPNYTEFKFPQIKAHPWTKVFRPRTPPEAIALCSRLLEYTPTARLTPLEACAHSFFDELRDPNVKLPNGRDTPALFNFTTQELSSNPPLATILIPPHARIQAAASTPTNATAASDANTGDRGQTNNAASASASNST
# Protocol: Each compound is dissolved in DMSO as a 10 mM stock and used to prepare compound source plates. Serial dilution (1:3, 11-point dose-response curves from 10 μM to 0.0003 μM) and compound transfer was performed using the ECHO 550 (Labcyte, Sunnyvale, Calif.) into 1536-well black-walled round bottom plates (Corning).
# This is a non-radioactive assay using fluorescence resonance energy transfer (FRET) between coumarin and fluorescein to detect kinase activity which is represented as ratio of coumarin emission/fluorescein emission.
# The mixture is allowed to incubate with the representative compounds for one hour at room temperature. All reactions were performed in duplicate. Unphosphorylated (“0% Control”) and phosphorylated (“100% control”) forms of Ser/Thr 18 serve as control reactions.
# After incubation, diluted Development Buffer is added to the reaction and allowed to further incubate for one hour at room temperature.
# Dose-response curves are generated and inhibitory concentration (IC50) values are calculated using non-linear regression curve fit in the Dotmatics' Studies Software (Bishops Stortford, UK).
# [1] = tested on: Tau phosphorylation at Ser396 (pSer396); test: Tau phosphorylation at Ser396 (pSer396) in SH-SY5Y cells, ELISA / western blot; type: cell-based, human; conditions: SH-SY5Y cells, overnight (16-18 h), read-out: pSer396 Tau EC50;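 further: decrease in pSer396 Tau measured in lysates of treated cells by colorimetric ELISA or chemiluminescent western blot, same pSer396 antibody for both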
# Protocol: Two days before treatment, cells were seeded onto 96 well plates at 5×10^4 cells/well.
# The above synthesized compounds were screened using the cell assay procedure to assess decrease Tau phosphorylation at Ser396 (pSer396) described below.
# Cells were lysed with RIPA buffer complemented with phosphatase and protease inhibitors then lysates were spun down at 12,000 g for 10 min to remove any cellular debris.
# [2] = tested on: secreted cytokines TNFα, IL-6 and KC-GRO; test: Secreted cytokines in Lipopolysaccharide-stimulated BV-2 cells (Table 9 does not say which cytokine); type: cell-based, mouse; conditions: read-out: EC50
# [3] = tested on: SW480 colon carcinoma cells; test: Cell viability assay (CellTiter-Glo); conditions: for inhibition at 10 µM: SW480, read-out: percent inhibition at 10 μM
# [4] = tested on: Wnt-responsive Sp5-Luc reporter in SW480 colon carcinoma cells; test: Screening assay for Wnt activity (Sp5-Luc reporter gene assay); conditions: for inhibition at 10 µM: SW480, read-out: percent inhibition at 10 μM
# IL-6 = IL-6 inhibition in LPS-stimulated human peripheral blood mononuclear cells (HTRF); conditions: for inhibition at 10 µM: read-out: percentage in parentheses after EC50 >10
# [5] = tested on: α-smooth muscle actin (aSMA) positive LL29 cells; test: Inhibition of the fibrotic process: αSMA staining in TGF-β1 treated LL29 fibroblasts from IPF patients; conditions: for inhibition at 10 µM: read-out: percentage in parentheses after EC50 >10
SMILES,EC50 (DYRK1A kinase) [nM],EC50 (GSK3β kinase) [nM],EC50 ([1]; Homo sapiens) [nM],"EC50 ([2]; Mus musculus, BV-2, 5 h) [nM]","EC50 ([3]; Homo sapiens, SW480, 96 h) [nM]","EC50 ([4]; Homo sapiens, SW480) [nM]","EC50 (IL-6; Homo sapiens, PBMC, 22 h) [nM]","EC50 ([5]; Homo sapiens, Fibroblast, 96 h) [nM]",inhibition at 10 µM ([3]; Homo sapiens) [%],inhibition at 10 µM ([4]; Homo sapiens) [%],"inhibition at 10 µM ([5]; Homo sapiens, Fibroblast) [%]","inhibition at 10 µM (IL-6; Homo sapiens, PBMC) [%]",EC50 [1] [nM],"EC50 ([2]; BV-2 cells, LPS 250 ng/mL 5 hours, compounds overnight, 10 μM to […], cytokine not named in Table 9) [nM]","EC50 ([3]; SW480 cells, four days, CellTiter-Glo) [nM]","EC50 ([4]; SW480 Sp5-Luc reporter cells, 36 to 48 hours) [nM]","percent inhibition at 10 μM ([4]; at 10 μM, given for EC50 of >10 μM, SW480 Sp5-Luc reporter) [%]","EC50 (IL-6; huPBMCs, LPS 50 ng/mL, 22 hours, curves starting from 10 μM) [nM]","percentage in parentheses after EC50 >10 (IL-6; huPBMCs, LPS, given beside >10 μM, meaning not given) [%]","EC50 ([5]; LL29 fibroblasts from IPF patients, TGF-β1 20 ng/mL, 4 days, curves from 10 μM to 0.94 nM) [nM]"
"Cn1cc(-c2ccc3cnc(NC(=O)C4CC4)cc3n2)cn1 [Compound 2, N-(2-(1-Methyl-1H-pyrazol-4-yl)-1,6-naphthyridin-7-yl) cyclopropanecarboxamide]",18,20,396,1700,2470,2940,3160,677,–,–,–,–,–,–,–,–,–,–,–,–
"Cn1cc(-c2ccc3cnc(NC(=O)[C@H]4CC[C@H](N5CCOCC5)CC4)cc3n2)cn1 [Compound 5, trans-N-(2-(1-methyl-1H-pyrazol-4-yl)-1,6-naphthyridin-7-yl)-4-morpholinocyclohexane-1-carboxamide]",7,138,2000,400,> 10000,> 10000,3300,> 10000,39.9,47.9,9,–,–,–,–,–,–,–,–,–
"Cn1cc(-c2ccc3cnc(NC(=O)C4CCNCC4)cc3n2)cn1 [Compound 11, N-(2-(1-Methyl-1H-pyrazol-4-yl)-1,6-naphthyridin-7-yl)piperidine-4-carboxamide]",14,101,3500,926,5800,3190,2830,2540,–,–,–,–,–,–,–,–,–,–,–,–
"CC(C)CN1CCC(C(=O)Nc2cc3nc(-c4cnn(C)c4)ccc3cn2)CC1 [Compound 16, 1-Isobutyl-N-(2-(1-methyl-1H-pyrazol-4-yl)-1,6-naphthyridin-7-yl) piperidine-4-carboxamide]",40,277,923,111,> 10000,1540,> 10000,251,45.1,–,–,52.2,–,–,–,–,–,–,–,–
"Cn1cc(-c2ccc3cnc(NC(=O)[C@H]4CC[C@H](N)CC4)cc3n2)cn1 [Compound 41, trans-4-amino-N-(2-(1-methyl-1H-pyrazol-4-yl)-1,6-naphthyridin-7-yl)cyclohexane-1-carboxamide]",10,429,> 10000,408,> 10000,1310,2770,663,31.8,–,–,–,–,–,–,–,–,–,–,–
"CN(CC(=O)Nc1cc2nc(-c3cnn(C)c3)ccc2cn1)C1CCC1 [Compound 56, 2-(Cyclobutyl(methyl)amino)-N-(2-(1-methyl-1H-pyrazol-4-yl)-1,6-naphthyridin-7-yl)acetamide]",21,59,1500,1140,> 10000,3390,> 10000,5180,35,–,–,6.3,–,–,–,–,–,–,–,–
"Cn1cc(-c2ccc3cnc(NC(=O)[C@H]4CCCN4)cc3n2)cn1 [Compound 62, (R)—N-(2-(1-Methyl-1H-pyrazol-4-yl)-1,6-naphthyridin-7-yl)pyrrolidine-2-carboxamide]",56,9,699,557,> 10000,> 10000,4830,> 10000,38.3,43.1,8.3,–,–,–,–,–,–,–,–,–
"Cn1cc(-c2ccc3cnc(NC(=O)C4CCN(S(C)(=O)=O)CC4)cc3n2)cn1 [Compound 71, N-(2-(1-Methyl-1H-pyrazol-4-yl)-1,6-naphthyridin-7-yl)-1-(methylsulfonyl)piperidine-4-carboxamide]",3,18,426,93,> 10000,559,5490,420,40.7,–,–,–,–,–,–,–,–,–,–,–
"Cn1cc(-c2ccc3cnc(NC(=O)CC4CNCCO4)cc3n2)cn1 (centres unmarked) [Compound 86, N-(2-(1-Methyl-1H-pyrazol-4-yl)-1,6-naphthyridin-7-yl)-2-(morpholin-2-yl)acetamide]",12,68,1000,201,3610,1890,1020,1890,–,–,–,–,–,–,–,–,–,–,–,–
"Cn1cc(-c2ccc3cnc(NC(=O)C4CCN(Cc5ncco5)CC4)cc3n2)cn1 [Compound 95, N-(2-(1-Methyl-1H-pyrazol-4-yl)-1,6-naphthyridin-7-yl)-1-(oxazol-2-ylmethyl)piperidine-4-carboxamide]",6,84,1700,66,> 10000,1540,9090,444,38.6,–,–,–,–,–,–,–,–,–,–,–
"Cn1cc(-c2ccc3cnc(NC(=O)C4CCN(Cc5ncccn5)CC4)cc3n2)cn1 [Compound 99, N-(2-(1-Methyl-1H-pyrazol-4-yl)-1,6-naphthyridin-7-yl)-1-(pyrimidin-2-ylmethyl)piperidine-4-carboxamide]",9,180,967,177,> 10000,1310,8600,4060,37,–,–,–,–,–,–,–,–,–,–,–
"CC(C(=O)Nc1cc2nc(-c3cnn(C)c3)ccc2cn1)N1CCCCC1 (centres unmarked) [Compound 112, N-(2-(1-Methyl-1H-pyrazol-4-yl)-1,6-naphthyridin-7-yl)-2-(piperidin-1-yl)propanamide]",88,62,1100,5400,7790,3650,9400,> 10000,–,–,13.8,–,–,–,–,–,–,–,–,–
O=C(Nc1cc2nc(-c3cnn4c3CN(CCF)CC4)ccc2cn1)C1CCC(F)(F)CC1 [Compound 317],–,–,–,–,–,–,–,–,–,–,–,–,35,66,3530,> 10000,50.0,> 10000,8.0,935
"Cn1cc(-c2ccc3cnc(NC(=O)c4ccc(OC5CCNCC5)cc4)nc3c2)nn1 [Compound 4573, N-(7-(1-Methyl-1H-1,2,3-triazol-4-yl)quinazolin-2-yl)-4-(piperidin-4-yloxy) benzamide]",6,161,10000,–,2700,3230,> 10000,> 10000,–,–,9.3,9.6,–,–,–,–,–,–,–,–
